The source of these data is ChEMBL document CHEMBL1130333, “On the mechanism of chorismate mutases: Revisiting structural requirements for catalysis” (Bioorg Med Chem Lett, 1997).

Series [1] is described as follows: Rearrangement half-life at pH of 7.8 was determined. It counts as ADME. The settings on record: pH 7.8.
Series [2] is described as follows: The compound was tested for inhibition of Bacillus subtilis chorismate mutase (BcCM); weak competitive inhibitor.
Series [3] is described as follows: Rearrangement half-life at pH of 7.4 was determined. It counts as ADME. The conditions noted are these: pH 7.4.

SMILES strings stand for the structures.

The term half-life denotes the time in which the quantity being followed falls by half. Low values mean fast loss, high ones slow loss. For orientation: Ki means the equilibrium dissociation constant of an inhibitor or competing ligand from its target. Low readings indicate higher affinity, high ones lower affinity. Consider `C=C(O[C@@H]1C=CC=C[C@H]1O)C(=O)[O-].[Na+]`, for which the half-life is 3.1 h in series [1] and 1.7 h in series [3]. The compound further gave a Ki in series [2] of 500 µM.
